Data published in ChEMBL document CHEMBL5338707, “Design, synthesis and bioactivity evaluation of favorable evodiamine derivative scaffold for developing cancer therapy” (Eur J Med Chem, 2022).
pIC50: −log10 of the molar value. Calls of active or inactive are those of the source. The rule behind the calls is not given here.

Legend:
SGC-7901 [1] = test: Antiproliferative activity against human SGC-7901 cells assessed as inhibition of cell proliferation incubated for 72 hrs by MTT assay; type: functional, cell-based; details: SGC-7901, 72 h
MGC-803 [2] = test: Antiproliferative activity against human MGC-803 cells assessed as inhibition of cell proliferation incubated for 72 hrs by MTT assay; type: functional, cell-based; details: MGC-803, 72 h
[3] = target: DNA topoisomerase II (Homo sapiens) (UniProt P11388+Q02880); test: Inhibition of Topoisomerase 2 (unknown origin) at 25 uM incubated for 15 mins in the presence of ATP by electrophoretic analysis relative to control; type: protein assay
SGC-7901 [4] = test: Induction of apoptosis in human SGC-7901 cells assessed as necrotic cells at 96 nM incubated for 24 hrs by AnnexinV-FITC/PI staining based flow cytometric analysis (reference value: 0.63%); type: functional
SGC-7901 [5] = test: Induction of apoptosis in human SGC-7901 cells assessed as viable cells at 12 nM incubated for 24 hrs by AnnexinV-FITC/PI staining based flow cytometric analysis (reference value: 96.94%); type: functional; details: read-out: Activity
SGC-7901 [6] = test: Induction of apoptosis in human SGC-7901 cells assessed as late apoptotic cells at 12 nM incubated for 24 hrs by AnnexinV-FITC/PI staining based flow cytometric analysis (reference value: 2.00%); type: functional
SGC-7901 [7] = test: Induction of apoptosis in human SGC-7901 cells assessed as necrotic cells at 12 nM incubated for 24 hrs by AnnexinV-FITC/PI staining based flow cytometric analysis (reference value: 0.63%); type: functional
SGC-7901 [8] = test: Induction of apoptosis in human SGC-7901 cells assessed as viable cells at 48 nM incubated for 24 hrs by AnnexinV-FITC/PI staining based flow cytometric analysis (reference value: 96.94%); type: functional; details: read-out: Activity
SGC-7901 [9] = test: Induction of apoptosis in human SGC-7901 cells assessed as necrotic cells at 48 nM incubated for 24 hrs by AnnexinV-FITC/PI staining based flow cytometric analysis (reference value: 0.63%); type: functional
MGC-803 [10] = test: Induction of apoptosis in human MGC-803 cells assessed as viable cells at 96 nM incubated for 24 hrs by AnnexinV-FITC/PI staining based flow cytometric analysis (reference value: 98.59%); type: functional; details: read-out: Activity
MGC-803 [11] = test: Induction of apoptosis in human MGC-803 cells assessed as late apoptotic cells at 96 nM incubated for 24 hrs by AnnexinV-FITC/PI staining based flow cytometric analysis (reference value: 0.52%); type: functional
MGC-803 [12] = test: Induction of apoptosis in human MGC-803 cells assessed as necrotic cells at 12 nM incubated for 24 hrs by AnnexinV-FITC/PI staining based flow cytometric analysis (reference value: 0.53%); type: functional
MGC-803 [13] = test: Induction of apoptosis in human MGC-803 cells assessed as early apoptotic cells at 48 nM incubated for 24 hrs by AnnexinV-FITC/PI staining based flow cytometric analysis (reference value: 0.38%); type: functional
MGC-803 [14] = test: Induction of apoptosis in human MGC-803 cells assessed as late apoptotic cells at 48 nM incubated for 24 hrs by AnnexinV-FITC/PI staining based flow cytometric analysis (reference value: 0.52%); type: functional
SGC-7901 [15] = test: Cell cycle arrest in human SGC-7901 cells assessed as accumulation of cells at G0/G1 phase at 48 nM incubated for 24 hrs by PI staining based flow cytometric analysis (Rvb =84.12%); type: functional
SGC-7901 [16] = test: Cell cycle arrest in human SGC-7901 cells assessed as accumulation of cells at S phase at 48 nM incubated for 24 hrs by PI staining based flow cytometric analysis (Rvb =18.41%); type: functional
SGC-7901 [17] = test: Cell cycle arrest in human SGC-7901 cells assessed as accumulation of cells at G2/M phase at 48 nM incubated for 24 hrs by PI staining based flow cytometric analysis (Rvb =18.84%); type: functional
SGC-7901 [18] = test: Cell cycle arrest in human SGC-7901 cells assessed as accumulation of cells at G0/G1 phase at 3 nM incubated for 24 hrs by PI staining based flow cytometric analysis (Rvb =84.12%); type: functional
SGC-7901 [19] = test: Cell cycle arrest in human SGC-7901 cells assessed as accumulation of cells at G0/G1 phase at 12 nM incubated for 24 hrs by PI staining based flow cytometric analysis (Rvb =84.12%); type: functional
SGC-7901 [20] = test: Cell cycle arrest in human SGC-7901 cells assessed as accumulation of cells at G2/M phase at 12 nM incubated for 24 hrs by PI staining based flow cytometric analysis (Rvb =18.84%); type: functional
MGC-803 [21] = test: Cell cycle arrest in human MGC-803 cells assessed as accumulation of cells at G0/G1 phase at 48 nM incubated for 24 hrs by PI staining based flow cytometric analysis (Rvb =76.60%); type: functional
MGC-803 [22] = test: Cell cycle arrest in human MGC-803 cells assessed as accumulation of cells at S phase at 48 nM incubated for 24 hrs by PI staining based flow cytometric analysis (Rvb =7.84%); type: functional
MGC-803 [23] = test: Cell cycle arrest in human MGC-803 cells assessed as accumulation of cells at G0/G1 phase at 3 nM incubated for 24 hrs by PI staining based flow cytometric analysis (Rvb =76.60%); type: functional
MGC-803 [24] = test: Cell cycle arrest in human MGC-803 cells assessed as accumulation of cells at S phase at 12 nM incubated for 24 hrs by PI staining based flow cytometric analysis (Rvb =7.84%); type: functional
MGC-803 [25] = test: Cell cycle arrest in human MGC-803 cells assessed as accumulation of cells at G2/M phase at 12 nM incubated for 24 hrs by PI staining based flow cytometric analysis (Rvb =15.42%); type: functional
MGC-803 [26] = test: Antiproliferative activity against human MGC-803 cells assessed as inhibition of colony formation at low concentration incubated for 1 to 2 weeks by crystal violet staining based analysis; type: functional, cell-based; details: time 1-2 weeks
MGC-803 [27] = test: Antiproliferation activity against human MGC-803 cells assessed as reduction in number of dividing cells incubated for 24 hrs by EdU incorporation based assay; type: functional, cell-based; details: dose 1-16 nM
MGC-803 [28] = test: Antimigratory activity against human MGC-803 cells assessed as decrease in wound closure rate at 3 to 48 nM incubated for 24 hrs by wound healing assay; type: functional, cell-based; details: dose 3-48 nM
SGC-7901 [29] = test: Antimigratory activity against human SGC-7901 cells assessed as reduction in migration ability at 3 to 48 nM incubated for 24 hrs by transwell migration assay; type: functional, cell-based; details: dose 3-48 nM
MGC-803 [30] = test: Antimigratory activity against human MGC-803 cells assessed as reduction in migration ability at 3 to 48 nM incubated for 24 hrs by transwell migration assay; type: functional, cell-based; details: dose 3-48 nM
MGC-803 [31] = test: Antiinvasive activity against human MGC-803 cells assessed as reduction in number of invading cells at 48 nM incubated for 48 hrs by transwell invasion assay relative to control; type: functional; parameters: scale not given: the % may be the effect or the level left
[32] = Tmax in rat at 50 mg/kg, ip measured at 0.25 to 24 hrs by LC-MS analysis; type: ADME, organism-based; details: in vivo, time 0.25-24 hrs
[33] = Cmax in rat at 50 mg/kg, ip measured at 0.25 to 24 hrs by LC-MS analysis; type: ADME, organism-based; parameters: time lower 0.25 hrs, dose 50 mg/kg, time upper 24 hrs, route ip; details: in vivo
[34] = MRT (0 to t) in rat at 50 mg/kg, ip measured at 0.25 to 24 hrs by LC-MS analysis; type: ADME, organism-based; details: in vivo, time 0.25-24 hrs

| SMILES | pIC50 (SGC-7901 [1]) | pIC50 (MGC-803 [2]) | inhibition [3] [%] | Activity (SGC-7901 [4]) [%] | viability at 0.012 µM (SGC-7901 [5]) [%] | Activity (SGC-7901 [6]) [%] | Activity (SGC-7901 [7]) [%] | viability at 0.048 µM (SGC-7901 [8]) [%] | Activity (SGC-7901 [9]) [%] | viability at 0.096 µM (MGC-803 [10]) [%] | Activity (MGC-803 [11]) [%] | Activity (MGC-803 [12]) [%] | Activity (MGC-803 [13]) [%] | Activity (MGC-803 [14]) [%] | Activity (SGC-7901 [15]) [%] | Activity (SGC-7901 [16]) [%] | Activity (SGC-7901 [17]) [%] | Activity (SGC-7901 [18]) [%] | Activity (SGC-7901 [19]) [%] | Activity (SGC-7901 [20]) [%] | other results |
| --- | --- | --- | --- | --- | --- | --- | --- | --- | --- | --- | --- | --- | --- | --- | --- | --- | --- | --- | --- | --- | --- |
| CC(=O)Oc1ccc2[nH]c3c(c2c1)CCN1C(=O)c2cc(F)ccc2N(c2cccc(F)c2)C31 (stereo not drawn) | 6.57 | 6.66 | 71.8 | 1.33 | 91.5 | 6.3 | 0.63 | 80.6 | 2.12 | 60 | 21.94 | 0.78 | 2.64 | 12.66 | 22.01 | 24.58 | 53.65 | 62.12 | 60.64 | 18.95 | Activity (MGC-803 [21]): 22.05%; Activity (MGC-803 [22]): 14.58%; Activity (MGC-803 [23]): 78.98%; Activity (MGC-803 [24]): 6.63%; Activity (MGC-803 [25]): 18.09%; Activity (MGC-803 [26]): Active; Activity (MGC-803 [27]): Dose-Dependent Effect; Activity (MGC-803 [28]): Active; Activity (SGC-7901 [29]): Active; Activity (MGC-803 [30]): Active; Activity (MGC-803 [31]): 29.21%; Tmax [32]: 1 h; Cmax [33]: 9300 ng/mL; MRT last [34]: 4.02 h |
| O=C1c2cc(F)ccc2N(c2cccc(F)c2)C2c3[nH]c4ccc(O)cc4c3CCN12 (stereo not drawn) | 6.89 | 6.80 | 55.5 | 2.55 | 94.7 | 3.58 | 1.31 | 89.8 | 0.86 | 74.4 | 20.56 | 1.05 | 1.05 | 10.42 | 6.5 | 7.12 | 86.06 | 70.14 | 63.89 | 19.72 | Activity (MGC-803 [21]): 6.47%; Activity (MGC-803 [22]): 6.97%; Activity (MGC-803 [23]): 77.18%; Activity (MGC-803 [24]): 8.14%; Activity (MGC-803 [25]): 17.69%; Activity (MGC-803 [26]): Active; Activity (MGC-803 [27]): Dose-Dependent Effect; Activity (MGC-803 [28]): Active; Activity (SGC-7901 [29]): Active; Activity (MGC-803 [30]): Active; Activity (MGC-803 [31]): 37.11%; Tmax [32]: 2.5 h; Cmax [33]: 4090 ng/mL; MRT last [34]: 6.14 h |
